Reference: patent US6855843B2, “Inhibitors of α4 mediated cell adhesion” (Tanabe Seiyaku Co., Ltd., priority 1998, dated 2005)

target: T1, α4β7 (adhesion of RPMI cells to CS-1) (Homo sapiens, UniProt P13612+P26010); experiment: RPMI-CS-1 cell adhesion assay; type: cell-based; settings: adhesion of RPMI B-cell line (expresses α4β7) to CS-1 peptide coated microwells; read-out: RPMI-CS-1 IC50 value range
T1 construct: endogenous in cells
T1 sequence (P13612 34-1032): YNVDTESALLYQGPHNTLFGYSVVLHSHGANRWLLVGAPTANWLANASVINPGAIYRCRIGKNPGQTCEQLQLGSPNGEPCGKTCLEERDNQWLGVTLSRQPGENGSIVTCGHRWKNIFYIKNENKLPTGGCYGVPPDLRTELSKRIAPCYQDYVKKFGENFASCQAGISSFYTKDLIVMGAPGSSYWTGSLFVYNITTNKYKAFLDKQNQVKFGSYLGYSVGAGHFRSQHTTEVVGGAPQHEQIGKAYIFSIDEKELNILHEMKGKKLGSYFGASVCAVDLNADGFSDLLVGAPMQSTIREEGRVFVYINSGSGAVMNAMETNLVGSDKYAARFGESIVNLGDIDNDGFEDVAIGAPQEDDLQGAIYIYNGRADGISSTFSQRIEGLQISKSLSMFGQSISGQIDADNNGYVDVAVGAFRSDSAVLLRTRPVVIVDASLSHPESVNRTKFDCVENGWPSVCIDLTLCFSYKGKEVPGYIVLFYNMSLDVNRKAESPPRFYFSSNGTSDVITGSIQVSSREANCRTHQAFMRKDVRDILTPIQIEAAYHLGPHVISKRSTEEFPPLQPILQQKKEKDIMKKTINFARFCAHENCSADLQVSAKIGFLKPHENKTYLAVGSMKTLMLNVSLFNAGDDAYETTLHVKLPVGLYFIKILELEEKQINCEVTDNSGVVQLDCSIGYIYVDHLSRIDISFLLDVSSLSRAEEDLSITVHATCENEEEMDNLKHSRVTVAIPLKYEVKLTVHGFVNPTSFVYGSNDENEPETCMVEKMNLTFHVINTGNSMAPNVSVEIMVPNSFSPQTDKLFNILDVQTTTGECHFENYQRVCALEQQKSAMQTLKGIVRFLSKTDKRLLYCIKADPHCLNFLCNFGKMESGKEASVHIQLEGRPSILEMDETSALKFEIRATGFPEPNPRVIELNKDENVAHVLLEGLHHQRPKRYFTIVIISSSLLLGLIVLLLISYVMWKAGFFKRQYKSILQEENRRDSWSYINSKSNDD
T1 sequence (P26010 20-798): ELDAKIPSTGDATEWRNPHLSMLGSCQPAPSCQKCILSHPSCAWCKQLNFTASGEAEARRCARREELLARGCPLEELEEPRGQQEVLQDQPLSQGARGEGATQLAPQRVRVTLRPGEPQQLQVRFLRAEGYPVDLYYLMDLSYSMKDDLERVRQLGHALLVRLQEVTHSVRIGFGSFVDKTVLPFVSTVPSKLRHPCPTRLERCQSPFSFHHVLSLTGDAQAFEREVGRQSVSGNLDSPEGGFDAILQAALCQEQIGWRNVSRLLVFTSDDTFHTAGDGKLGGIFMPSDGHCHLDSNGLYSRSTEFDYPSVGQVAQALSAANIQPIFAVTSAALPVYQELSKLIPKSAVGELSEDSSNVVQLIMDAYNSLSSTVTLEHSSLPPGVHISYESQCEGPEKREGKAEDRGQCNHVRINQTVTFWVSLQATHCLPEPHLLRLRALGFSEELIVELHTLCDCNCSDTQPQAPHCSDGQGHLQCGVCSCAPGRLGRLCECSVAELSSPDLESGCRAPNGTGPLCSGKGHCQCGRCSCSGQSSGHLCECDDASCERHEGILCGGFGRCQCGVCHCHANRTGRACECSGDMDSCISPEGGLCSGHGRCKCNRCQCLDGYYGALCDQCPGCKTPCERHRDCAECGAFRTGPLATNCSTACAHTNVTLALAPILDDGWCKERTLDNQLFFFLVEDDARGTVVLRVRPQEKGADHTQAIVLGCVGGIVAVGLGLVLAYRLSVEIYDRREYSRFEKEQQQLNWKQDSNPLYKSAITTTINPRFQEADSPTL
Experimental: RPMI-CS-1 Cell Adhesion Assay:
The test compounds were added in increasing concentrations to RPMI cells and then the cell-compound mixture was added to CS-1 coated microwells. The plates were incubated, washed and the percentage of attached cells were quantitated.
The CS-1 derived peptide, […], and the scrambled control peptide, […], were synthesized at Tanabe Research Laboratories, USA, Inc. on a Beckman 990 synthesizer using t-Boc methodology. […] Microtiter plates were coated with 20 μg/ml human serum albumin (HSA) for 2 hours at room temperature, washed once with PBS and derivatized with 10 μg/ml SPDP for 1 hour. […] Unbound peptide was removed from the plates by washing with PBS. To block non-reacted sites, the plates were coated with 100 μl of a 2.5 mg/ml BSA solution in PBS for one hour at 37° C. 100 μl of RPMI cells (2.5×10^6 cells/ml) in Dulbecco's Modified Eagles Medium (DMEM) plus 0.25% ovalbumin were added to peptide coated dishes and incubated for 1 hour at 37° C. […] To do this, the enzyme substrate p-nitrophenyl-N-acetyl-β-D-glucoseaminide is dissolved at 7.5 mM in 0.1 M citrate buffer pH 5 and then mixed with an equal volume of 0.5% Triton X100. 50 μl of the substrate solution was added to the plates and the plates were incubated at 37° C. for 60 minutes.
In this assay, IC50 value ranges (μM) are depicted by A, B, C and D. These ranges as follows. D>5≧C>1≧B>0.3≧A

| Compound | IC50 [nM] |
| --- | --- |
| COc1cc(CN2CCC3(CC2)OCCO3)cc(OC)c1-c1ccc(C[C@H](NC(=O)c2c(Cl)cccc2Cl)C(=O)O)cc1 [Example 244] | < 300 |
| N-(2,6-Dichlorobenzoyl)-4-(2,6-dimethoxyphenyl)-L-phenylalanine 2-pyridylmethyl ester [Example 272] | 300 to 1000 |
| N#Cc1sccc1-c1ccc(C[C@H](NC(=O)c2c(Cl)cccc2Cl)C(=O)O)cc1 [Example 219, N-(2,6-Dichlorobenzoyl)-4-(2-cyano-3-thienyl)-L-phenylalanine] | 300 to 1000 |
| COc1cc(CN2CCNCC2)cc(OC)c1-c1ccc(C[C@H](NC(=O)c2c(Cl)cccc2Cl)C(=O)O)cc1 [Example 262, N-(2,6-Dichlorobenzoyl)-4-[2,6-dimethoxy-4-[(1-piperazinyl)methyl]phenyl]-L-phenylalanine] | < 300 |
| COc1cccc(OC(C)C)c1-c1ccc(C[C@H](NC(=O)c2c(Cl)cccc2Cl)C(=O)O)cc1 [Example 226, N-(2,6-Dichlorobenzoyl)-4-(2-i-propyloxy-6-methoxyphenyl)-L-phenylalanine] | < 300 |
| COc1ncnc(OC)c1-c1ccc(C[C@H](NC(=O)c2c(Cl)cccc2Cl)C(=O)O)cc1 [Example 144] | < 300 |
| COc1cc(Cl)cc(OC)c1-c1ccc(C[C@H](NC(=O)c2c(Cl)cccc2Cl)C(=O)O)cc1 [Example 12, N-(2,6-Dichlorobenzoyl)-4-(4-chloro-2,6-dimethoxyphenyl)-L-phenylalanine] | < 300 |
| COc1cccc(OC)c1-c1ccc(C[C@H](NC(=O)c2c(Cl)cccc2Cl)C(=O)OCc2cccnc2)cc1 [Example 273, N-(2,6-Dichlorobenzoyl)-4-(2,6-dimethoxyphenyl)-L-phenylalanine 3-pyridylmethyl ester] | 1000 to 5000 |
| COc1cc(OCCO)cc(OC)c1-c1ccc(C[C@H](NC(=O)c2c(Cl)cccc2Cl)C(=O)O)cc1 [Example 222, N-(2,6-Dichlorobenzoyl)-4-[2,6-dimethoxy-4-(2-hydroxyethoxy)phenyl]-L-phenylalanine] | < 300 |
| O=C(N[C@@H](Cc1ccc(-c2ccsc2CO)cc1)C(=O)O)c1c(Cl)cccc1Cl [Example 218, N-(2,6-Dichlorobenzoyl)-4-(2-hydroxymethyl-3-thienyl)-L-phenylalanine] | 1000 to 5000 |
| O=Cc1sccc1-c1ccc(C[C@H](NC(=O)c2c(Cl)cccc2Cl)C(=O)O)cc1 [Example 214, N-(2,6-Dichlorobenzoyl)-4-(2-formyl-3-thienyl)-L-phenylalanine] | 300 to 1000 |
| COc1cccc(OC)c1-c1ccc(C[C@H](NC(=O)c2c(Cl)cccc2Cl)C(=O)OCc2ccncc2)cc1 [Example 274, N-(2,6-Dichlorobenzoyl)-4-(2,6-dimethoxyphenyl)-L-phenylalanine 4-pyridylmethyl ester] | 1000 to 5000 |
| Cc1ccc(-c2ccc(C[C@H](NC(=O)c3c(Cl)cccc3Cl)C(=O)O)cc2)cc1 [Example 117] | 1000 to 5000 |
| O=C(N[C@@H](Cc1ccc(-c2c(F)cccc2F)cc1)C(=O)O)c1c(Cl)cccc1Cl [Example 135, N-(2,6-Dichlorobenzoyl)-4-(2,6-difluorophenyl)-L-phenylalanine] | < 300 |
| CN1CCCC1CCOc1ccccc1-c1ccc(C[C@H](NC(=O)c2c(Cl)cccc2Cl)C(=O)O)cc1 (stereo partly shown) [Example 43] | 1000 to 5000 |
| COc1cc(CN2CCCCC2)cc(OC)c1-c1ccc(C[C@H](NC(=O)c2c(Cl)cccc2Cl)C(=O)O)cc1 [Example 256, N-(2,6-Dichlorobenzoyl)-4-[2,6-dimethoxy-4-(piperidinomethyl)phenyl]-L-phenylalanine] | < 300 |
| CCCCCC(=O)Nc1cccc(-c2ccc(C[C@H](NC(=O)c3c(Cl)cccc3Cl)C(=O)O)cc2)c1 [Example 126] | 1000 to 5000 |

Results, then the compound that gave them:

| IC50 [nM] | Compound |
| --- | --- |
| < 300 | COc1ccccc1-c1ccc(C[C@H](NC(=O)c2c(Cl)cccc2Cl)C(=O)O)cc1 [Example 8, N-(2,6-Dichlorobenzoyl)-4-(2-methoxyphenyl)-L-phenylalanine] |
| < 300 | CN(C)S(=O)(=O)c1ccccc1-c1ccc(C[C@H](NC(=O)c2c(Cl)cccc2Cl)C(=O)O)cc1 [Example 21, N-(2,6-Dichlorobenzoyl)-4-[2-(N,N-dimethylsulfamoyl)phenyl]-L-phenylalanine] |
| < 300 | COc1cccc(OC)c1-c1ccc(C[C@H](NC(=O)c2ccc(NS(C)(=O)=O)cc2Cl)C(=O)O)cc1 [Example 77] |
| 1000 to 5000 | COc1ccccc1-c1ccc(C[C@H](NC(=O)C(=O)c2ccccc2)C(=O)O)cc1 [Example 95] |
| > 5000 | COc1ccccc1-c1ccc(C[C@H](NC(=O)c2ccccc2NC(C)=O)C(=O)O)cc1 [Example 105] |
| 300 to 1000 | Nc1ccccc1-c1ccc(C[C@H](NC(=O)c2c(Cl)cccc2Cl)C(=O)O)cc1 [Example 23, N-(2,6-Dichlorobenzoyl)-4-(2-aminophenyl)-L-phenylalanine] |
| < 300 | CCOc1cccc(OC)c1-c1ccc(C[C@H](NC(=O)c2c(Cl)cccc2Cl)C(=O)O)cc1 [Example 14, N-(2,6-Dichlorobenzoyl)-4-(2-ethoxy-6-methoxyphenyl)-L-phenylalanine] |
| < 300 | COc1ccccc1-c1ccc(C[C@H](NC(=O)c2ccc(NC(N)=O)cc2Cl)C(=O)O)cc1 [Example 69, N-(2-Chloro-4-ureidobenzoyl)-4-(2-methoxyphenyl)-L-phenylalanine] |
| 1000 to 5000 | CC(=O)Nc1cc(C[C@H](NC(=O)c2c(Cl)cccc2Cl)C(=O)O)ccc1-c1ccccc1 [Example 343, N-(2,6-Dichlorobenzoyl)-3-acetylamino-4-phenyl-L-phenylalanine] |
| 1000 to 5000 | CC(=O)NS(=O)(=O)c1ccccc1-c1ccc(C[C@H](NC(=O)c2c(Cl)cccc2Cl)C(=O)O)cc1 [Example 19, N-(2,6-Dichlorobenzoyl)-4-[2-(N-acetylsulfamoyl)phenyl]-L-phenylalanine] |
| < 300 | COc1cccc(OC)c1-c1ccc(C[C@H](NC(=O)c2c(C)cccc2Cl)C(=O)O)cc1 [Example 277] |
| 1000 to 5000 | CCCCOc1ccccc1-c1ccc(C[C@H](NC(=O)c2c(Cl)cccc2Cl)C(=O)O)cc1 [Example 34] |
| 1000 to 5000 | COC(=O)Nc1cccc(-c2ccc(C[C@H](NC(=O)c3c(Cl)cccc3Cl)C(=O)O)cc2)c1 [Example 125] |
| 1000 to 5000 | COc1cccc(N(C)C)c1-c1ccc(C[C@H](NC(=O)c2c(Cl)cccc2Cl)C(=O)O)cc1 [Example 29, N-(2,6-Dichlorobenzoyl)-4-[2-(N,N-dimethylamino)-6-methoxyphenyl]-L-phenylalanine] |
